Assay results from patent US20240425568A1, “COMBINATION THERAPIES FOR HIV INFECTIONS AND USES THEREOF” (VIIV HEALTHCARE COMPANY, priority 2021, published 2024).
Where two headings read alike, the source gives them in different places.

What was measured:
[1] = biological target: T1, cell surface expressed HIV-1 envelope (Human immunodeficiency virus type 1 group M subtype B, UniProt P04578); type: cell-based, HIV-1 lab strain HxB2; conditions: for binding of bnAb to the cell surface of CD4+/p24+ cells (mean fluorescent intensity, MFI): HIV infected cells treated with 0.5 uM temsavir for 24 hr, compared to DMSO only treated cells, bnAb 50 ug/mL to 0.01 ug/mL, FIG. 1; for overall percentage of cells that contained bound bnAbs: 0.5 uM temsavir compared to DMSO only treated cells, FIG. 2
T1 construct: cell surface expressed HIV-1 envelope from a productive infection of human CD4^+ T cells; endogenous in cells; host or cells: primary human CD4+ T cells (from healthy-donor PBMCs) productively infected with HIV-1 HxB2 virus
Description: Preparation and HIV-1 infection of target cells: Peripheral blood mononuclear cells (PBMCs) were obtained by continuous-flow leukapheresis from healthy donors, isolated by ficoll-hypaque density gradient centrifugation and cryopreserved in the vapor phase of liquid nitrogen. PBMCs were rapidly thawed to room temperature in a 37° C. water bath and cultured in assay medium (RPMI 1640 media supplemented with 10% fetal calf serum plus 30 U/mL recombinant IL-2) containing 2 ug/mL phytohemagglutinin-P (Sigma) for three days in a humidified incubator at 37° C., 5% CO2. CD4^+ T cells were isolated by negative selection (Stemcell Technologies), washed twice and resuspended with assay medium at a final density of 1-2×10^6 cells/mL and incubated at 37° C., 5% CO2 overnight. Cells were centrifuged at 500×g for 10 minutes, resuspended with assay medium at 5×10^6 cell/mL and 200 uL (1×10^6 total cells) were distributed to 24-well tissue culture treated plates. An HIV-1 lab strain, HxB2 virus, previously propagated in human PBMC cells, was diluted with assay medium containing 50 ug/mL DEAE-dextran and 200 uL was added to the cells in the 24-well plates. The plates were centrifuged at 1,200×g for 1.5 hours and the infected cells were collected and pooled in a 50 ml conical tube. The infected cells were washed twice and resuspended in assay medium to a final density of 1-2×10^6 cells/mL and incubated at 37° C., 5% CO2 for three days.
Treatment of HIV-infected target cells with temsavir and N6 bnAbs: HIV infected cells were centrifuged at 500×g for 10 minutes, resuspended with assay medium at 3×10^6 cell/mL and 50 uL (150,000 total cells) were distributed to 96-well, U-bottom tissue-culture treated plates. […] The antibodies were eluted and diluted in buffer consisting of 150 mM Arginine, 50 mM Sodium acetate, pH 5.5, 150 mM NaCl) were serially titrated in assay medium and added to the temsavir-treated cells for a final concentration range of 50 ug/mL to 0.01 ug/mL. The plates were incubated at 37° C., 5% CO2 for 30 minutes.
Flow cytometry: The assay plates were removed from the incubator and the cells were pelleted by centrifugation at 500×g for 2 minutes at 25° C. The cells were washed twice by mixing with 200 μL of ice cold wash buffer (phosphate buffered saline containing 2% fetal calf serum) with centrifugation at 500×g for 2 minutes at 25° C. for each wash cycle. […] The stained cells were washed twice with wash buffer as indicated above, acquired on a Fortessa cytometer (BD Biosciences) and the data were analyzed by mean fluorescent intensity (MFI) using FlowJo v10.8 software (Tree Star).

[2] = system: HIV infected CD4+ T cells; test: ADCC assay: NK-directed killing of HIV infected CD4+ T cells; type: cell-based, human (infected with HIV-1 lab strain IIIB); conditions: for NK-directed killing of HIV infected cells mediated by CD4 binding site bnAbs (ADCC): temsavir 50 nM-0.08 nM for 16-24 hours, antibodies 5 ug/mL, Raltegravir in medium
Description: Isolation and preparation of target and effector cells: Peripheral blood mononuclear cells (PBMCs) were obtained by continuous-flow leukapheresis from healthy donors, isolated by ficoll-hypaque density gradient centrifugation and cryopreserved in the vapor phase of liquid nitrogen. PBMCs were rapidly thawed to room temperature in a 37° C. water bath and resuspended in RPMI 1640 media supplemented with 10% fetal calf serum. For the target cells, CD4+T lymphocytes were purified using immunomagnetic negative selection beads as per the manufacturer's instructions (StemCell Technologies). The cells were activated with phytohemagglutinin-P (Sigma; PHA-P; 5 μg/mL) for 72 hours at 37° C., 5% CO2 and then maintained under the same incubation conditions in RPMI 1640 medium supplemented with 10% fetal calf serum plus 50 U/mL recombinant IL-2. Natural Killer (NK) effector cells were purified from autologous PBMCs using immunomagnetic negative selection beads as per the manufacturer's instructions (StemCell Technologies). The cells were maintained in RPMI 1640 medium supplemented with 10% fetal calf serum and incubated at 37° C., 5% CO2 for 24 hr prior to ADCC assay.
Infection of target cells: HIV-1 lab strain IIIB was used to infect the activated CD4+T lymphocytes by spin infection at 1200×g for 1.5 hours in 24-well plates at 25° C. in the presence of 25 μg/mL DEAE-Dextran. The infected cells were collected, washed and resuspended in RPMI 1640 medium supplemented with 10% fetal calf serum plus 50 U/mL recombinant IL-2 and incubated at 37° C., 5% CO2 for 3 days until infection rates reached above 20%.
ADCC assay: HIV infected CD4^+ T cells (targets) were incubated with cell proliferation dye as per the manufacturer's instructions (eFluor670; eBioscience) and plated in 96-well U-bottom plates. Temsavir was dissolved in DMSO and diluted into RPMI 1640 medium supplemented with 10% fetal calf and serially titrated in the same medium in 5-fold increments for a dose range of 50 nM-0.08 nM. […]
The cells were then stained intracellularly for HIV-1 p24, using the Cytofix/Cytoperm Fixation/Permeabilization Kit (BD Biosciences) with subsequent addition of anti-p24 mAb (FITC anti-p24, clone KC57; Beckman Coulter/Immunotech; 1:200 final concentration) for 20-30 minutes at room temperature. […] The percentage of specific killing was calculated with the following formula: (% of p24^+ cells in Targets plus Effectors)−(% of p24^+ cells in Targets plus Effectors plus Abs)/(% of p24^+ cells in Targets alone without antibody or temsavir) by gating on live target cells.

Molecule	binding of bnAb to the cell surface of CD4+/p24+ cells (mean fluorescent intensity, MFI) [1]	magnitude of killing (maximum), percentage of specific killing ([2]; with temsavir titration 50 nM-0.08 nM, antibody 5 ug/mL, NK effector-to-target ratio 3:1, 24 hours, FIG. 3) [%]	overall percentage of cells that contained bound bnAbs [1]	overall percentage of cells that contained bound bnAbs ([1]; listed as Temsavir)	cell death of HIV infected primary cells in the absence of effector cells ([2]; effector cells eliminated from the assay, FIG. 4)	NK-directed killing of HIV infected cells mediated by CD4 binding site bnAbs (ADCC) ([2]; NK effector-to-target ratio 3:1, 24 hours, FIG. 3)	NK-directed killing of HIV infected cells mediated by CD4 binding site bnAbs (ADCC) ([2]; NK effector-to-target ratio 3:1, 24 hours, FIG. 3, listed as Temsavir)
N6-LAGA: Fc binding-reduced N6 antibody, constant domain comprising L235A and G237A mutations; HC SEQ ID NO: 13	substantial increase	25	–	–	–	–	–
COc1cnc(-n2cnc(C)n2)c2[nH]cc(C(=O)C(=O)N3CCN(C(=O)c4ccccc4)CC3)c12 [temsavir, 1-(4-benzoylpiperazin-1-yl)-2-[4-methoxy-7-(3-methyl-1,2,4-triazol-1-yl)-1H-pyrrolo[2,3-c]pyridin-3-yl]ethane-1,2-dione]	enhancement	–	significant increase	enhancement	does not lead to cell death	Dose dependent temsavir enhancement	enhances
